# Experimental data as given in patent US4935431A, “Substituted 7-amino-thienopyridine derivatives as gastric acid secretion inhibitors” (SmithKline Beckman Intercredit B.V., priority 1988, dated 1990).
# Structures can show the parent of a compound that is named as a salt.
# How the values were obtained:
# H^+ K^+ ATPase = target: T1, H^+ K^+ ATPase (Sus scrofa, UniProt P19156); test: K^+ -stimulated ATPase activity in lyophilised gastric vesicles (H/K-ATPase); assay type: biochemical; details: lyophilised gastric vesicles from pig fundic mucosa, 37° C., pH 7.0, 30 minutes
# T1 construct: Lyophilised gastric vesicles were prepared from pig fundic mucosa; from tissue; host or cells: pig fundic mucosa (lyophilised gastric vesicles)
# T1 sequence (P19156 2-1034 limits assumed): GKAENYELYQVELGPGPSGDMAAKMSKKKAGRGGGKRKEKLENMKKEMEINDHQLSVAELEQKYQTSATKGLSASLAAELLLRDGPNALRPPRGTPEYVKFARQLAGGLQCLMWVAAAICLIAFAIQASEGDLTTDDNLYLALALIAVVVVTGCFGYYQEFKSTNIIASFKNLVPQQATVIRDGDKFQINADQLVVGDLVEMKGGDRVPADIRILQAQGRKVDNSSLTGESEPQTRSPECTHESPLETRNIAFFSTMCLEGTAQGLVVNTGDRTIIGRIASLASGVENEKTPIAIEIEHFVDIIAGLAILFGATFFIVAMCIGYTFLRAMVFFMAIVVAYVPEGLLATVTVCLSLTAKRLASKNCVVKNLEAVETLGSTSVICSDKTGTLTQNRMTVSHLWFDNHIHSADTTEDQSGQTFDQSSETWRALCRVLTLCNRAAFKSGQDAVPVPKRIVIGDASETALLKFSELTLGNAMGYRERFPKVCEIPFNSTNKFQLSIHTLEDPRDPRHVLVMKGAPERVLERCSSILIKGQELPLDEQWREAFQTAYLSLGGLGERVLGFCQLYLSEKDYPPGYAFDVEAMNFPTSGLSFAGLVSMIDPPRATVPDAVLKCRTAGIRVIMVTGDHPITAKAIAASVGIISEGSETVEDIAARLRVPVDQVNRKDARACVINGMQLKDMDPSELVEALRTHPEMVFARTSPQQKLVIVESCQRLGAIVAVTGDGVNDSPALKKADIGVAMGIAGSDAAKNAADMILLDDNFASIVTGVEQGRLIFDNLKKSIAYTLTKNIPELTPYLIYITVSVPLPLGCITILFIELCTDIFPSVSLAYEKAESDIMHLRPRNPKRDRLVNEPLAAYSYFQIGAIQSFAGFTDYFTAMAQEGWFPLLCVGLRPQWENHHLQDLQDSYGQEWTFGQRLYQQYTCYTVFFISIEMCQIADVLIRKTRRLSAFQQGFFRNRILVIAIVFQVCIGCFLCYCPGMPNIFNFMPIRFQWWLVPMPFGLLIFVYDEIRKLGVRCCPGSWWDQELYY
# T1 sequence (P18434 whole entry partner): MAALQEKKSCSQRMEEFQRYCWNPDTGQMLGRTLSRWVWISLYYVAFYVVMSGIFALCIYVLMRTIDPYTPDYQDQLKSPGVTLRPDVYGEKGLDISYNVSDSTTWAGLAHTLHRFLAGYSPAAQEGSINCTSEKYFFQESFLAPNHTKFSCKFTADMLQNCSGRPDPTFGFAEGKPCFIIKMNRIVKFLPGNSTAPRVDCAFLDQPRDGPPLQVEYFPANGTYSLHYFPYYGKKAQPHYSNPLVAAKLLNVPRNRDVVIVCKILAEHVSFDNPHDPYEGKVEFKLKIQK
# Experimental: A. H^+ K^+ ATPase Activity The effects of a single high concentration (100 μM) of a compound of structure (I) on K^+ -stimulated ATPase activity in lyophilised gastric vesicles was determined. Preferred compounds of structure (I) were also tested over a range of concentrations to determine IC50 values. (i) Preparation of Lyonhilised Gastric Vesicles (H/K-ATPase) Lyophilised gastric vesicles were prepared from pig fundic mucosa after the method of Keeling et. al. (Biochem. Pharmacol., 34, 2967, 1985). (ii) K^+ -Stimulated ATPase Activity K^+ -stimulated ATPase activity was determined at 37° C. in the presence of the following: 10 mM Pipes/Tris buffer pH 7.0, 2 mM MgSO4, 1 mM KCl, 2 mM Na2 ATP and 3 μg protein/ml lyophilised gastric vesicles. After incubation for 30 minutes, the inorganic phosphate hydrolysed from ATP was determined by the method of Yoda and Hokin (Biochem. Biophys. Res. Commun. 40, 880, 1970). Compounds of structure (I) were dissolved in dimethylsulphoxide which up to the highest concentration used had no effect on K^+ -stimulated ATPase activity. The effect of the highest concentration of each compound of structure (I) on the recovery of a standard amount of inorganic phosphate was also determined.
# [1] = tested on: pentagastrin stimulated gastric acid secretion; test: Rat Lumen Perfused Stomach (Pentagastrin Stimulated Gastric Acid Secretion); assay type: in vivo; details: for RAT GS % inhibition @ 10 μmol/kg: i.v.; for ED50: iv, read-out: RAT GS ED50
# Source text: B. Rat Lumen Perfused Stomach (Pentagastrin Stimulated Gastric Acid Secretion)
# Using a modification of the procedure described by Ghosh & Schild (Br. J. Pharmacology, 13, 54, 1958), the compounds of the following examples were found on i.v. administration to cause an inhibition of pentagastrin stimulated gastric acid secretion as indicated in the following table. Results are given as % inhibition at 10 μmole/kg or ED50 (μM/kg): […]
Structure (SMILES),IC50 (H^+ K^+ ATPase) [µM],RAT GS % inhibition @ 10 μmol/kg [1] [%],ED50 [1] [µmol/kg]
"CCCC(=O)c1cnc2c(OC)csc2c1Nc1ccccc1C [Example 9, 6-Butyryl-7-(2-methylphenylamino)-3-methoxythieno[3,2-b]pyridine]",13,,
"CCOC(=O)c1cnc2sccc2c1Nc1ccccc1C [Example 1, Ethyl 4-(2-methylohenylamino)thieno[2,3-b]pyridine-5-carboxylate]",3,32,
"CCCC(=O)c1cnc2ccsc2c1Nc1ccc(O)cc1C [Example 16, 6-Butyryl-(4-hydroxy-2-methylphenylamino)thieno[3,2-b]-pyridine]",0.33,,4.03
"CCOC(=O)c1cnc2c(C)csc2c1Nc1ccccc1C [Example 5, Ethyl 3-methyl-7-(2-methylphenylamino)thieno[3,2-b]-pyridine-6-carboxylate]",,,11.2
"CCOC(=O)c1cnc2ccsc2c1Nc1ccccc1C [Example 3, Ethyl 7-(2-methylphenylamino)thieno[3,2-b]pyridine-6-carboxylate]",0.62,,9.7
"CCOC(=O)c1cnc2c(OC)csc2c1Nc1ccccc1C [Example 7, Ethyl 3-methoxy-7-(2-methylohenylamino)thieno[3,2-b] pyridine-6-carboxylate]",21,,
"CCCC(=O)c1cnc2ccsc2c1Nc1ccc(F)cc1C [Example 12, 6-Butyryl-7-(4-fluoro-2-methylphenylamino)thieno[3,2-b]-pyridine]",4.3,38,
"CCOC(=O)c1cnc2c(C)csc2c1NCc1ccccc1 [Example 6, Ethyl 3-methyl-7-benzylaminothieno[3,2-b]pyridine-6-carboxylate]",,31,
"CCCC(=O)c1cnc2ccsc2c1Nc1ccccc1C(C)C [Example 15, 6-Butyryl-7-(2-isopropylphenylamino)thieno[3,2-b]pyridine]",0.86,62,
"CCCC(=O)c1cnc2ccsc2c1Nc1ccccc1CC [Example 13, 6-Butyryl-7-(2-ethylphenylamino)thieno[3,2-b]pyridine]",1.1,,3.32
"CCCC(=O)c1cnc2ccsc2c1Nc1ccccc1CCC [Example 14, 6-Butyryl-7-(2-propylphenylamino)thieno[3,2-b]pyridine hydrochloride]",1.2,,
"CCOC(=O)c1cnc2ccsc2c1NCc1ccccc1 [Example 4, Ethyl 7-benzylaminothieno[3,2-b]pyridine-6-carboxylate]",4.3,19,
"CCOC(=O)c1cnc2sccc2c1NCc1ccccc1 [Example 2, Ethyl 4-benzylaminothieno[2,3-b]pyridine-5-carboxylate]",9.71,13,
"CCCC(=O)c1cnc2ccsc2c1Nc1ccccc1C [Example 11, 6-Butyryl-7-(2-methylphenylamino)thieno[3,2-b]pyridine]",0.88,55,
